Assay results as given in the NIST ThermoML archive (doi:10.1021/acs.jced.7b00114).
Numbers after ± are expanded uncertainties.

Experiment: activity coefficient (dimensionless); of the first substance listed, at infinite dilution; xn = mol fraction of the nth substance listed
Conditions: Liquid, Chemical equilibration / Heterogeneous equilibration, x1 = 0

Row | SMILES | activity coefficient (298.15 K, 100 kPa) | activity coefficient (303.15 K, 100 kPa) | activity coefficient (308.15 K, 100 kPa) | activity coefficient (313.15 K, 100 kPa) | activity coefficient (318.15 K, 100 kPa) | activity coefficient (323.15 K, 100 kPa) | activity coefficient (328.15 K, 100 kPa) | activity coefficient (278.15 K, 99 kPa) | activity coefficient (283.15 K, 99 kPa) | activity coefficient (288.15 K, 99 kPa) | activity coefficient (293.15 K, 99 kPa) | activity coefficient (298.15 K, 99 kPa) | activity coefficient (303.15 K, 99 kPa) | activity coefficient (283.15 K, 100 kPa) | activity coefficient (293.15 K, 100 kPa)
1 | O [water] + COc1ccc(Br)cc1 | 119 ± 10 | 106 ± 9.3 | 93.7 ± 8.2 | 83.3 ± 7.3 | 74.1 ± 6.4 | 65.5 ± 5.7 | – | – | – | – | – | – | – | – | –
2 | O [water] + COc1ccccc1 | 95.3 ± 8.3 | 84.4 ± 7.3 | 75.8 ± 6.6 | 68.8 ± 6 | 61.7 ± 5.3 | 55.9 ± 4.8 | 50 ± 4.3 | – | – | – | – | – | – | – | –
3 | O [water] + Brc1ccccc1 | 367 ± 33 | 311 ± 28 | 264 ± 24 | 226 ± 20 | 189 ± 17 | 164 ± 15 | – | – | – | – | – | – | – | – | –
4 | O [water] + ClC=C(Cl)Cl | – | – | – | – | – | – | – | 1200 ± 130 | 978 ± 100 | 806 ± 84 | 663 ± 69 | 524 ± 54 | 441 ± 45 | – | –
5 | O [water] + FC(F)(F)c1ccccc1 | 362 ± 33 | 302 ± 27 | 256 ± 23 | 218 ± 20 | 181 ± 16 | 155 ± 14 | – | – | – | – | – | – | – | – | –
6 | O [water] + CCOc1ccccc1 | 110 ± 9.6 | 97 ± 8.5 | 87.3 ± 7.6 | 77.7 ± 6.8 | 69.9 ± 6.1 | 62.7 ± 5.4 | – | – | – | – | – | – | – | – | –
7 | O [water] + Cc1ccccc1 | – | 300 ± 27 | – | 214 ± 19 | 184 ± 16 | 155 ± 14 | – | – | – | – | – | – | – | 620 ± 57 | 423 ± 39
8 | O [water] + Clc1ccccc1 | 376 ± 34 | 318 ± 29 | 271 ± 24 | 235 ± 21 | 202 ± 18 | 177 ± 16 | – | – | – | – | – | – | – | – | –
